Measurements reported in patent US10682409B2, “Therapeutic treatment” (priority 2012, dated 2020).

Assay: Examples 3-11: weight and height (velocity, percentile curve, course) of ADHD Patients A-H
Type: in vivo, human
Method: In an embodiment, a therapeutically effective amount of a therapeutic compound disclosed herein increases the weight or height of an individual is determined by an increase in the individual's weight or height velocity as compared to an individual nor receiving a therapeutic compound for appetite reduction. In an embodiment, weight and/or height velocity can be calculated by taking measurements of height and/or weight of an individual over a period of time and measuring an increase or decrease in an individual's height and/or weight over the period of time. In an embodiment, weight velocity is calculated by taking three time points, time 0 upon initiation of medication to treat ADHD, time 1 addition of an appetite stimulant, time 2 the last data point after initiation of combination treatment. In an embodiment, a formula to calculate weight and height velocity for stimulant alone is (weightT1−weight T0)/days from Time 0 to time 1. In an embodiment, a formula to calculate weight velocity for combination treatment is (weightT2−weight T1)/days from time 1 to time 2. In an embodiment, to evaluate whether weight velocity increased after addition of an appetite stimulant, the weight velocity of time 0 to time 1 is compared to the weight velocity from time 1 to time 2. In an embodiment, height velocity is calculated by taking three time points, time 0 upon initiation of medication to treat ADHD, time 1 addition of an appetite stimulant, time 2 the last data point after initiation of combination treatment. The formula to calculate height velocity for stimulant alone is (weightT1−weight T0)/days from Time 0 to time 1. The formula to calculate height velocity for combination treatment is (weightT2−weight T1)/days from time 1 to time 2. In an embodiment, to evaluate whether height velocity increased after addition of an appetite stimulant, the height velocity of time 0 to time 1 is compared to the height velocity from time 1 to time 2.
Eight patients, identified as patients A-H, that came in suffering from ADHD were treated for ADHD. […] Each patient was then prescribed an appetite simulant to be taken along with the amphetamine or methylphenidate. The patients' weight, height and attentiveness were then followed during the course of treatment.
The age range of the patients was from 6-15 years of age, with a mean age at the start of treatment for ADHD of 8.4 years of age. The mean age at the start of the combination treatment wherein the patient was administered an amphetamine or methylphenidate and an appetite stimulant was 10.3 years of age. The mean treatment period for the eight patients was 1,108 days with a mean of 2.55 ADHD medication changes during the treatment period. Attentiveness in the eight patients was measured using CGI-S and CGI-I. Patients weight and height velocity were measured to identify a difference in weight and height gain prior to and after addition of an appetite stimulant to the treatment for ADHD. Weight velocity was calculated by taking three time points, time 0 upon initiation of medication to treat ADHD, time 1 addition of an appetite stimulant, time 2 the last data point after initiation of combination treatment. The formula to calculate weight velocity for stimulant alone is (weightT1−weight T0)/days from Time 0 to time 1. The formula to calculate weight velocity for combination treatment is (weightT2−weight T1)/days from time 1 to time 2.

[1] = Patient A, Periactin 4 mg b.i.d. added to Concerta from day 661, FIG. 4
[2] = Patient G, Focalin XR 15 mg and Periactin 4 mg b.i.d. from day 546, FIG. 16

For `CN1CCC(=C2c3ccccc3C=Cc3ccccc32)CC1.Cl` [Periactin, 4-(5H-dibenzo[a,d]cyclohepten-5-ylidene)-1-methylpiperidine hydrochloride], the height course [1] was “increase in height began to accelerate”, the weight course [1] was “began to gain weight” and the weight course (Patient B, Focalin XR 15 mg and Periactin 4 mg b.i.d. from day 865, FIG. 6) was “began to gain weight”. For the same compound, the weight course (Patient B, Focalin XR 30 mg with Periactin, FIG. 6) was “continued to increase”, the weight course (Patient C, Concerta 36 mg and Periactin 4 mg b.i.d. from day 350, FIG. 8) was “began to gain weight” and the weight course (Patient D, Concerta 18 mg and Periactin 2 mg in the morning from day 23, FIG. 10) was “began to gain weight at an accelerated pace”. For the same compound, the weight course (Patient D, Concerta increased to 27 mg with Periactin) was “only a slight decrease in the ability of Patient D to continue to gain weight”, the height course (Patient D, combination of Concerta and Periactin, lagged initiation, FIG. 10) was “increased the growth rate” and the weight course (Patient E, Focalin XR 20 mg and Periactin 4 mg in the morning, FIG. 12) was “began to gain weight at an accelerated pace”. For the same compound, the “pace of weight gain” value (Patient E, Periactin administered b.i.d. from day 836 with Focalin XR) was “increased”, the weight course (Patient F, Daytrana patch 30 mg and Periactin 2 mg b.i.d. from day 1547, FIG. 14) was “began to gain weight at an accelerated pace” and the “pace of weight gain” value (Patient F, Periactin increased to 4 mg b.i.d. on day 1950 with Daytrana patch) was “increased”. The height course [2] was “began to gain height at an accelerated pace”, the weight course [2] was “continued to gain weight at a good pace” and the weight course (Patient H, Vvyanase 40 mg and Periactin 2 mg b.i.d. from day 109, FIG. 18) was “began to gain weight”. For the same compound, the “appetite when the dose of the ADHD drug was increased” value (individual patient of the example (B, D, E, F) on Periactin) was “without a concomitant loss of appetite”.
